# Read-outs that look alike come from different tables or passages of the source.
# Key:
# [1] = target: T1, human dopamine D3 receptors (Homo sapiens, UniProt P35462); test: Dopamine D3 receptor binding, displacement of [125I]-iodosulpride
# T1 construct: expressed in transfected cells; membranes used
# Protocol: (§1) C) Biological Investigations—Receptor-Binding Studies: • The substance to be tested was dissolved either in methanol/Chremophor®) (BASF-AG) or in dimethyl sulfoxide and then diluted with water to the desired concentration.
# I. Dopamine D3 Receptor: • The mixture (0.250 ml) was composed of membranes from ˜10^6 HEK-293 cells with stably expressed human dopamine D3 receptors, 0.1 nM [^125I]-iodosulpride and incubation buffer (total binding) or additionally test substance (inhibition plot) or 1 μM spiperone (nonspecific binding). Triplicate assays were carried out. • The incubation buffer contained 50 mM Tris, 120 mM NaCl, 5 mM KCl, 2 mM CaCl2, 2 mM MgCl2 and 0.1% bovine serum albumin, 10 μM quinolone, 0.1% ascorbic acid (prepared freshly each day). The buffer was adjusted to pH 7.4 with HCl.
# (§2) III. Measurement and Evaluation: • After incubation at 25° C. for 60 minutes, the mixtures were filtered through Wathman GF/B glass fiber filters under vacuum using a cell harvester. The filters were transferred using a filter transfer system into scintillation vials. After addition of 4 ml of Ultima Gold® (Packard), the samples were shaken for one hour and then the radioactivity was counted in a Beta Counter (Packard, Tricarb 2000 or 2200CA). The cp values were converted into dpm on the basis of a standard quench series with the aid of the program supplied with the instrument. • The inhibition plots were evaluated by iterative nonlinear regression analysis using the Statistical Analysis System (SAS), similar to the “LIGAND” program described by Munson and Rodbard. • The compounds of the invention show very good affinities for the D3 receptor in these assays (<100 nM, frequently <50 nM) and bind selectively to the D3 receptor.
# [2] = target: T2, human dopamine D2L receptors (long isoform) (Homo sapiens, UniProt P14416); test: Dopamine D2L receptor binding, displacement of [125I]-iodospiperone; conditions: Ki(D2L)/Ki(D3); human D2L and D3 receptors in HEK-293 membranes
# T2 construct: expressed in transfected cells; membranes used
# T2 sequence (P14416 whole entry, canonical isoform): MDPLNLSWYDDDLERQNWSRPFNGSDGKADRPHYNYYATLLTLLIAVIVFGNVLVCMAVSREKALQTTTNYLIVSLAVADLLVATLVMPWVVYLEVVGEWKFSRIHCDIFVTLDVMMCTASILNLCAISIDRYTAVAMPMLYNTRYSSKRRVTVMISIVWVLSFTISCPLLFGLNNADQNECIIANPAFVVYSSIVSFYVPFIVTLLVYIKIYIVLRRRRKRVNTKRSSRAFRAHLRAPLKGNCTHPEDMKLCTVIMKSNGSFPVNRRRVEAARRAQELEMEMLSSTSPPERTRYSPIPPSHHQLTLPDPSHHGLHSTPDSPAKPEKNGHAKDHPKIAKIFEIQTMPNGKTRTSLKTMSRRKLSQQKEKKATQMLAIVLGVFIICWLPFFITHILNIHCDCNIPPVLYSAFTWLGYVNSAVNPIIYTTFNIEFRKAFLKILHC
# Protocol: as §1
# II. Dopamine D2L receptor: • The mixture (1 ml) was composed of membranes from ˜10^6 HEK-293 cells with stably expressed human dopamine D2L receptors (long isoform) and 0.01 nM [^125I]-iodospiperone and incubation buffer (total binding) or additionally test substance (inhibition plot) or 1 μM haloperidol (nonspecific binding). Triplicate assays were carried out. • The incubation buffer contained 50 mM Tris, 120 mM NaCl, 5 mM KCl, 2 mM CaCl2, 2 mM MgCl2 and 0.1% bovine serum albumin. The buffer was adjusted to 7.4 with HCl.
# as §2
# [3] = membranes from HEK-293 cells with stably expressed human dopamine D3 receptors, 0.1 nM [125I]-iodosulpride, 25° C., 60 minutes, read-out: Ki (D3)
# T1 sequence (P35462 whole entry): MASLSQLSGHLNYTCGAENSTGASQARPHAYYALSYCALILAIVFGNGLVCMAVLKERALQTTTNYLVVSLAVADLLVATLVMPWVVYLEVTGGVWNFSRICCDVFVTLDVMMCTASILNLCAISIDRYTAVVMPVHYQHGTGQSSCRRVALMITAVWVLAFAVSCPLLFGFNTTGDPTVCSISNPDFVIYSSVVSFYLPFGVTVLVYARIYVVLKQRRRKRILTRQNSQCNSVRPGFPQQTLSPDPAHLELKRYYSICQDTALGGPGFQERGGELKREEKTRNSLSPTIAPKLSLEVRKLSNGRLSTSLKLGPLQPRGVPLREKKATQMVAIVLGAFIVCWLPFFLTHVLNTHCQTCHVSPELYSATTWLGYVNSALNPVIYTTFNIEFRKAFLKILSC
Structure (SMILES),"Ki [1, 3] [nM]",Selectivity vs. D2L* [2],Ki [1] [nM]
"CCCN1CCc2ccc(NS(=O)(=O)c3ccc(Br)cc3)cc2CC1.O=C(O)C(F)(F)F [Example 19, 4-Bromo-N-(3-Propyl-2,3,4,5-Tetrahydro-1H-3-Benzazepin-7-yl)Benzene-Sulfonamide Trifluoroacetate]",–,65,3
"CCCN1CCc2ccc(NS(=O)(=O)c3ccc(Cl)s3)cc2CC1.O=C(O)C(F)(F)F [Example 21, N-(3-Propyl-2,3,4,5-Tetrahydro-1H-3-Benzazepin-7-yl)-5-Chlorothiophene-2-Sulfonamide Trifluoroacetate]",–,47,16
"CCCN1CCc2ccc(NS(=O)(=O)c3ccc(OC)cc3)cc2CC1.O=C(O)C(F)(F)F [Example 16, 4-Methoxy-N-(3-Propyl-2,3,4,5-Tetrahydro-1H-3-Benzazepin-7-yl)Benzene-Sulfonamide Trifluoroacetate]",8.1,142,–
"CCCN1CCc2ccc(NS(=O)(=O)c3ccc(C(C)(C)CC)cc3)cc2CC1.O=C(O)C(F)(F)F [Example 14, 4-(1,1-Dimethylpropyl)-N-(3-Propyl-2,3,4,5-Tetrahydro-1H-3-Benzazepin-7-yl)Benzenesulfonamide Trifluoroacetate]",3.6,113,–
"CCCN1CCc2ccc(NS(=O)(=O)c3cc(Cl)sc3Cl)cc2CC1.O=C(O)C(F)(F)F [Example 22, N-(3-Propyl-2,3,4,5-Tetrahydro-1H-3-Benzazepin-7-yl)-2,5-Dichlorothiophene-3-Sulfonamide Trifluoroacetate]",–,46,13
"CCCN1CCc2ccc(NS(=O)(=O)c3ccc4ccccc4c3)cc2CC1.O=C(O)C(F)(F)F [Example 17, N-(3-Propyl-2,3,4,5-Tetrahydro-1H-3-Benzazepin-7-yl)Naphthalene-2-Sulfonamide Trifluoroacetate]",4.5,68,–
"CCCCc1ccc(S(=O)(=O)Nc2ccc3c(c2)CCN(CCC)CC3)cc1.O=C(O)C(F)(F)F [Example 13, 4-Butyl-N-(3-Propyl-2,3,4,5-Tetrahydro-1H-3-Benzazepin-7-yl)Benzene-Sulfonamide Trifluoroacetate]",0.6,143,–
"CCCN1CCc2ccc(NS(=O)(=O)c3ccc(C)cc3)cc2CC1.O=C(O)C(F)(F)F [Example 11, 4-Methyl-N-(3-Propyl-2,3,4,5-Tetrahydro-1H-3-Benzazepin-7-yl)Benzene Sulfonamide Trifluoroacetate]",–,112,4.7
"C=Cc1ccc(S(=O)(=O)Nc2ccc3c(c2)CCN(CCC)CC3)cc1.Cl [Example 4, N-(3-Propyl-2,3,4,5-Tetrahydro-1H-3-Benzazepin-7-yl)-4-Vinylbenzenesulfonamide Hydrochloride]",0.5,435,–
"CCCN1CCc2ccc(N(C)S(=O)(=O)c3ccc(C(C)C)cc3)cc2CC1.O=C(O)C(F)(F)F [Example 31, 4-Isopropyl-N-Methyl-N-(3-Propyl-2,3,4,5-tetrahydro-1H-3-Benzazepin-7-yl)Benzenesulfonamide Trifluoroacetate]",1,63,–
"CCCN1CCc2ccc(NS(=O)(=O)c3ccc(Cl)cc3)cc2CC1 [Example 3, 4-Chloro-N-(3-Propyl-2,3,4,5-Tetrahydro-1H-3-Benzazepin-7-yl)Benzenesulfonamide]",4.1,68,–
"CCCN1CCc2ccc(NS(=O)(=O)c3ccc(Br)cc3C)cc2CC1.O=C(O)C(F)(F)F [Example 20, 4-Bromo-2-Methyl-N-(3-Propyl-2,3,4,5-Tetrahydro-1H-3-Benzazepin-7-yl)-Benzenesulfonamide Trifluoroacetate]",7.1,85,–
"CCCN1CCc2ccc(NS(=O)(=O)c3ccc(Cl)cc3Cl)cc2CC1.O=C(O)C(F)(F)F [Example 18, 2,4-Dichloro-N-(3-Propyl-2,3,4,5-Tetrahydro-1H-3-Benzazepin-7-yl)Benzenesulfonamide Trifluoroacetate]",7.3,85,–
"CCCN1CCc2ccc(NS(=O)(=O)c3c(C)cc(C)cc3C)cc2CC1.O=C(O)C(F)(F)F [Example 12, 2,4,6-Trimethyl-N-(3-Propyl-2,3,4,5-Tetrahydro-1H-3-Benzazepin-7-yl)-Benzenesulfonamide Trifluoroacetate]",7.2,90,–

# More lines, main results first:
"Ki [1, 3] [nM]",Selectivity vs. D2L* [2],Structure (SMILES),Ki [1] [nM]
5.8,252,"CCCN1CCc2ccc(NS(=O)(=O)c3ccc(C(F)(F)F)cc3)cc2CC1.Cl [Example 6, N-(3-Propyl-2,3,4,5-Tetrahydro-1H-3-Benzazepin-7-yl)-4-(Trifluoromethyl)-Benzenesulfonamide Hydrochloride]",–
2.1,115,"CC(C)c1ccc(S(=O)(=O)Nc2ccc3c(c2)CCN(CC2CC2)CC3)cc1.Cl [Example 57, N-(3-Cyclopropylmethyl-2,3,4,5-Tetrahydro-1H-3-Benzazepin-7-yl)4-Isopropylbenzenesulfonamide Hydrochloride]",–
1.2,146,"CC(C)c1ccc(S(=O)(=O)Nc2ccc3c(c2)CCN(CCCF)CC3)cc1.Cl [Example 66, N-[3-(3-Fluoropropyl)-2,3,4,5-Tetrahydro-1H-3-Benzazepin-7-yl]-4-Isopropylbenzenesulfonamide Hydrochloride]",–
7.1,99,"CCCN1CCc2ccc(NS(=O)(=O)c3ccc(OC(F)(F)F)cc3)cc2CC1 [Example 2, N-(3-Propyl-2,3,4,5-Tetrahydro-1H-3-Benzazepin-7-yl)-4-Trifluoromethoxy-Benzenesulfonamide]",–
16.5,271,"CCCN1CCc2ccc(NS(=O)(=O)c3ccc(C(C)=O)cc3)cc2CC1 [Example 10, 4-Acetyl-N-(3-Propyl-2,3,4,5-Tetrahydro-1H-3-Benzazepin-7-yl)Benzenesulfonamide]",–
4.1,120,"CCCN1CCc2ccc(NS(=O)(=O)c3ccc(C(C)(C)C)cc3)cc2CC1.Cl [Example 7, 4-Tert-Butyl-N-(3-Propyl-2,3,4,5-Tetrahydro-1H-3-Benzazepin-7-yl)Benzenesulfonamide Hydrochloride]",–
0.4,141,"C=CCN1CCc2ccc(NS(=O)(=O)c3ccc(C(C)C)cc3)cc2CC1.Cl [Example 65, N-(3-Allyl-2,3,4,5-Tetrahydro-1H-3-Benzazepin-7-yl)-4-(Isopropyl)Benzenesulfonamide Hydrochloride]",–
1,368,"CCCN1CCc2ccc(NS(=O)(=O)c3ccc(CC)cc3)cc2CC1.Cl [Example 5, 4-Ethyl-N-(3-Propyl-2,3,4,5-Tetrahydro-1H-3-Benzazepin-7-yl)Benzenesulfonamide Hydrochloride]",–
1.2,66,"CC(C)c1ccc(S(=O)(=O)Nc2ccc3c(c2)CCN(C)CC3)cc1.Cl [Example 56, 4-Isopropyl-N-(3-Methyl-2,3,4,5-Tetrahydro-1H-3-Benzazepin-7-yl)Benzenesulfonamide Hydrochloride]",–
1,446,"CCCN1CCc2ccc(CS(=O)(=O)c3ccc(C(C)C)cc3)cc2CC1 [Example 36, 7-(4-Isopropylbenzenesulfonylmethyl)-3-Propyl-2,3,4,5-Tetrahydro-1H-3-Benzazepine]",–
0.3,330,"CCCN1CCc2ccc(NS(=O)(=O)c3ccc(C(C)C)cc3)cc2CC1.Cl [Example 8, 4-Isopropyl-N-(3-Propyl-2,3,4,5-Tetrahydro-1H-3-Benzazepin-7-yl)Benzenesulfonamide Hydrochloride]",–
3.4,84,"C=CCN1CCc2ccc(NS(=O)(=O)c3ccc(C(F)(F)F)cc3)cc2CC1.Cl [Example 58, N-(3-Allyl-2,3,4,5-Tetrahydro-1H-3-Benzazepin-7-yl)4-(Trifluoromethyl)Benzenesulfonamide Hydrochloride]",–
28.2,40,"CCCN1CCc2ccc(S(=O)(=O)Nc3ccc(OC(F)(F)F)cc3)cc2CC1.Cl [Example 35, 3-Propyl-N-[4-(Trifluoromethoxy)Phenyl]-2,3,4,5-Tetrahydro-1H-3-Benzazepine-7-Sulfonamide Hydrochloride]",–

# — US8207160B2, “Tetrahydrobenzazepines and their use in he modulation of the dopamine D3 receptor” (Abbott GmbH & Co. KG, priority 2003, dated 2012)
